Data: patent US20200339953A1, “HEMATOPOIETIC STEM AND PROGENITOR CELL THERAPY” (priority 2010, published 2020)

Experiments:
[1] = tested on: CXCR4 cell-surface protein on CD34^+ cord blood cells; experiment: CXCR4 surface expression analysis by flow cytometry; format: cell-based, human; settings: 10 μM; for CD34+ cord blood cells with detectable CXCR4 expression: 2 hours at 37° C.
Procedure: CD34^+ cord blood cells were treated with 10 μM 16,16-dimethyl PGE2 or DMSO in StemSpan media for 2 hours at 37° C. or for 1 hour at 4° C. After treatment, the cells were washed in StemSpan media, centrifuged for 10 minutes at 300× g and resuspended in StemSpan media containing cytokines (e.g., CC100) to promote CD34^+ cell survival and incubated at 37° C. for 1, 6 and 24 hours. After the 1, 6 or 24 hour incubation, cells were centrifuged and resuspended in staining media containing the Lineage cocktail, 1-FITC, […], CXCR4(CD184)-PE, and incubated on ice for 15 minutes. Fresh staining media was then added to the cells, and the cells were centrifuged at 300 g for 10 minutes, twice. The stained cells were acquired on a Guava EasyCyte 8HT and analysis was performed using FloJo Software Package (Treestar).
CXCR4 cell-surface expression is important for stem cell homing to the bone marrow hematopoietic niche. […] Cells were treated for 2 hours at 37 or for 1 hour at 4° C. with either 10 μM 16,16-dimethyl PGE2 or DMSO control in StemSpan media. CXCR4 cell-surface protein expression was assessed 1, 6 and 24 hours after the end of treatment by flow cytometry.

CD34^+ cells = experiment: Competitive cAMP assay (LANCE cAMP detection kit); format: cell-based, human
Procedure: The cAMP assay was performed on CD34^+ cells using the LANCE® cAMP detection kit (Perkin Elmer Inc., Waltham, Mass.) according to the manufacturer's instructions. Briefly, 3,000 CD34^+ cells (Stem Cell Technologies, Vancouver, Canada) were aliquoted in each well of a 384-well opaque white plate in the recommended stimulation buffer. Assays were performed in triplicate for all conditions.
CD34^+ cells were placed on ice prior to being stimulated with DMSO or 16,16-dimethyl PGE2 at 4° C. For assays conducted at other temperatures, e.g., 25° C. or 37° C., DMSO or 16,16-dimethyl PGE2 was added to CD34^+ cells at room temperature and then the plates were incubated with DMSO or 16,16-dmPGE2 at the experimental temperature (25° C. or 37° C.).
CD34^+ cells were incubated for periods of 5, 15, 30, 60 or 120 minutes. Following the incubation period, detection buffer was added to the stimulated cells and cells were incubated for an additional 1 hour at room temperature in detection buffer, regardless of stimulation temperature. The assay plates were analyzed using an EnVision® 2104 Multilabel Reader (Perkin Elmer) according to the manufacturer's instructions.
A competitive cAMP assay was performed using CD34^+ cells to determine the effects of time (incubation for 15, 30, 60, or 120 minutes), temperature (incubation at 4° C., 25° C., or 37° C.), and final 16,16-dimethyl PGE2 concentration (1 μM, 10 μM, 50 μM, or 100 μM) on cAMP production in the cells.

[2] = tested on: human CD34^+ cord blood (hCD34^+ CB) cells; experiment: In vitro chemotaxis assay towards SDF1α; format: cell-based; settings: 10 μM, 4 hours, 37° C.; 50 ng/ml SDF1α vs DMSO or 0 ng/ml SDF1α
Procedure: Chemotaxis assays were performed using 96-well chemotaxis chambers, […] pore size polycarbonate membrane (Corning Inc., Corning, N.Y.) in accordance with manufacturer's instructions. Briefly, human CD34^+ cord blood (hCD34^+ CB) cells were obtained from All Cells and were thawed according to manufacturer's instruction. The cells were then treated for 4 hours at 37° C. with 16,16-dimethyl PGE2 or DMSO control at a concentration of 10 μM in StemSpan media (Stem Cell Technology, Vancouver, Canada). The cells were then washed by centrifugation (300 g for 10 minutes) and resuspended in transwell assay buffer (Phenol Red Free RPMI media (Mediatech), 0.5% lipid free BSA (Sigma-Aldrich) at a concentration of 40,000-60,000 cells/75 ul. Seventy-five μl of cell suspension was added to the upper chamber of the plate, while 235 μl of transwell assay media containing 0 or 50 ng/ml SDF1α (R&D system, Minneapolis, Minn.) was added to the bottom well. Total cell number in the lower well was obtained by flow cytometry, using 7AAD (BD Biosciences) to exclude dead cells, after 4 hours of incubation at 37° C., 5% CO2. […] Percent migration was calculated by dividing the number of the cells in the lower well by the total cell input multiplied by 100. Samples were analyzed in triplicate, the data was then averaged for statistical analysis.

## CCCCC(C)(C)[C@H](O)/C=C/[C@H]1[C@H](O)CC(=O)[C@@H]1C/C=C\CCCC(=O)O [16,16-dimethyl PGE2]
[1]; 4° C.
  CXCR4 expression after treatment at 4° C.: did not result in an increase in CXCR4 expression
[1]; 1 hour after treatment
  CD34+ cord blood cells with detectable CXCR4 expression: 48%
[1]; 6 hours post-treatment
  CD34+ cord blood cells with detectable CXCR4 expression: 34.7%
[1]; 24 hours post-treatment
  level of CXCR4 compared to DMSO treated cells: substantially the same
CD34^+ cells; 4° C., 1, 10, 50 and 100 μM, p>0.05
  cAMP production compared to DMSO controls: No statistically significant increase
CD34^+ cells; 37° C.
  time in which the cAMP response reached maximal levels: 15 min
CD34^+ cells; 37° C. and 25° C., 5 min up to 2 hours, 1, 10, 50 and 100 μM, p<0.001
  cAMP activity compared to DMSO control: statistically significant increase
CD34^+ cells; CD34+ cells
  threshold concentration above which the cAMP response was relatively dose-insensitive: 10 µM
CD34^+ cells; CD34+ cells, FIG. 3
  incubation time of maximal cAMP response: 30 to 60 min
[2]
  number of migrating CD34+ cells: significantly increased
